{"source": "patent US20180185305A1", "about": "“An Amino Thiol for Use in the Treatment of an Infection Caused by the Bacterium Mycobacterium Spp” (NOVABIOTICS LIMITED, priority 2015, published 2018)", "format_in_all_cases": "cell-based", "key": {"Mycobacterium abscessus [1]": {"tested_on": "Mycobacterium abscessus", "assay": "Antimicrobial susceptibility of M. abscessus isolates, CLSI broth microdilution (MIC100)", "settings": "for MIC: Mycobacteroides abscessus", "experimental": "(§1) Mycobacterium absessus complex (MAC) was isolated from three participating patients. The susceptibility of these isolates, plus the MAC type strain M. abscessus DSMZ44196 to the antimicrobial effects of cysteamine alone and cysteamine combined with antibiotics employed in MAC eradication strategies, (amikacin, azithromycin and meropenem) was assessed by CLSI broth microdilution procedure [CLSI, 2012] and checkerboard assay respectively."}, "[2]": {"tested_on": "polymicrobial load in CF sputum", "assay": "Effect of cysteamine and antibiotics on CF sputum microbial burden: single exposure", "settings": "overall over 4 and 24 h exposure; for reduction of polymicrobial load: cysteamine 1 mg/ml", "experimental": "Sputum samples were processed for antimicrobial activity within 4 h of collection. To assess the antimicrobial impact of cysteamine alone and cysteamine in conjunction with antibiotics commonly used to treat infective exacerbations of CF lung disease, 0.2 ml of each sputum sample sputum was diluted ten fold in sterile phosphate buffered saline (PBS) and vortexed. Aliquots (0.2 ml) of the homogenised diluted sample were exposed to cysteamine only (1 mg/ml), [ ] antibiotic (tobramycin [0.1 mg/ml] or ciprofloxacin, [0.1 mg/ml] only, cysteamine plus antibiotic or vehicle (PBS) only, for 4 and 24 h at 37° C. Sputum samples were then serially diluted 10-fold (1×10^−1 to 1×10^−8) and spread-plated on non-selective nutrient agar plates. Cultures were incubated at 37° C. and cfu/ml of bacteria quantified at 48 h.\nFEV1 was expressed as a percentage of predicted using GLI 2012 reference equations. Sputum microbial load expressed as colony forming units approximated to a log-normal distribution and was therefore logarithmically transformed to base 10. Microbial load after incubation with cysteamine, tobramycin, ciprofloxacin after 4 and 24 hours was modelled using two way repeated measures ANOVA with post hoc testing using Bonferroni adjustment. Analyses were performed using IBM SPSS Statistics for Windows, v22.0 (Armonk, N.Y.)."}, "Mycobacterium abscessus [3]": {"tested_on": "Mycobacterium abscessus", "assay": "Checkerboard assay of cysteamine combined with antibiotics, fractional inhibitory concentration index", "experimental": "The Fractional Inhibitory Concentration (FIC) corresponds to an interaction coefficient indicating whether the combination of antimicrobial agents is synergistic, additive, antagonist or neutral. The FIC is determined by comparing the activity of an agent in combination (MIC of agent A+agent B) with the activity of the agent alone (MIC of agent A or agent B) as follow (Singh et al., 2000):\nFIC=MICA[combition]/MICA[alone]+MICB[combination]/MICB[alone]\nAdditive combinations of two antimicrobial agents are indicated by a FIC index of 1, whereas a FIC index <1 indicates synergistic combinations. Neutral combinations would give a FIC between 1 and 4, a FIC index higher than 4 indicates antagonist effects between the two antimicrobial agents.\nas §1"}, "[4]": {"settings": "DSM44196, strain DSM44196 (type)"}, "[5]": {"settings": "nine samples, ciprofloxacin 0.1 mg/ml"}, "[6]": {"settings": "23 samples, tobramycin 0.1 mg/ml, mean (95% CI)"}}, "data": [{"smiles": "NCC[C@H](O)C(=O)N[C@@H]1C[C@H](N)[C@@H](O[C@H]2O[C@H](CN)[C@@H](O)[C@H](O)[C@H]2O)[C@H](O)[C@H]1O[C@H]1O[C@H](CO)[C@@H](O)[C@H](N)[C@H]1O", "note": "[Amikacin]", "values": [{"measurement": "MIC", "setting": "Mycobacterium abscessus [1]; [4]", "result": "4 to 8", "unit": "µg/mL"}, {"measurement": "MIC", "setting": "Mycobacterium abscessus [1]; strain MR27419N (clinical)", "result": 16, "unit": "µg/mL"}, {"measurement": "MIC", "setting": "Mycobacterium abscessus [1]; strain MR313292 (clinical)", "result": 4, "unit": "µg/mL"}, {"measurement": "MIC", "setting": "Mycobacterium abscessus [1]; strain MR313367D (clinical)", "result": 16, "unit": "µg/mL"}]}, {"smiles": "CC[C@H]1OC(=O)[C@H](C)[C@@H](O[C@H]2C[C@@](C)(OC)[C@@H](O)[C@H](C)O2)[C@H](C)[C@@H](O[C@@H]2O[C@H](C)C[C@H](N(C)C)[C@H]2O)[C@](C)(O)C[C@@H](C)CN(C)[C@H](C)[C@@H](O)[C@]1(C)O", "note": "[Azithromycin]", "values": [{"measurement": "MIC", "setting": "Mycobacterium abscessus [1]; [4]", "result": "1 to 2", "unit": "µg/mL"}, {"measurement": "MIC", "setting": "Mycobacterium abscessus [1]; strain MR27419N (clinical)", "result": 1, "unit": "µg/mL"}, {"measurement": "MIC", "setting": "Mycobacterium abscessus [1]; strain MR313292 (clinical)", "result": 8, "unit": "µg/mL"}, {"measurement": "MIC", "setting": "Mycobacterium abscessus [1]; strain MR313367D (clinical)", "result": 1, "unit": "µg/mL"}]}, {"smiles": "O=C(O)c1cn(C2CC2)c2cc(N3CCNCC3)c(F)cc2c1=O", "note": "[Ciprofloxacin]", "values": [{"measurement": "reduction of polymicrobial load", "setting": "[2]; [5]", "result": 0.84, "unit": "log10 units"}]}, {"smiles": "NCCS", "note": "[Cysteamine, cysteamine]", "values": [{"measurement": "reduction of polymicrobial load", "setting": "[2]; [6]", "result": "3.18 (2.30-4.07) log10 units"}, {"measurement": "further reduction of polymicrobial load compared with tobramycin", "setting": "[2]; 23 samples", "result": 1.76, "unit": "log10 units"}, {"measurement": "reduction of polymicrobial load", "setting": "[2]; [5]", "result": 2.76, "unit": "log10 units"}, {"measurement": "further reduction of polymicrobial load compared with ciprofloxacin", "setting": "[2]; nine samples", "result": 1.92, "unit": "log10 units"}, {"measurement": "MIC range", "setting": "Mycobacterium abscessus [1]; M. abscessus isolated from three study subjects", "result": "62.5 to 250", "unit": "µg/mL"}, {"measurement": "MIC", "setting": "Mycobacterium abscessus [1]; [4]", "result": "62.5 to 125", "unit": "µg/mL"}, {"measurement": "MIC", "setting": "Mycobacterium abscessus [1]; strain MR27419N (clinical)", "result": 125, "unit": "µg/mL"}, {"measurement": "MIC", "setting": "Mycobacterium abscessus [1]; strain MR313292 (clinical)", "result": "125 to 250", "unit": "µg/mL"}, {"measurement": "MIC", "setting": "Mycobacterium abscessus [1]; strain MR313367D (clinical)", "result": "62.5 to 125", "unit": "µg/mL"}, {"measurement": "effect of cysteamine on the impact of amikacin (by FICI)", "setting": "Mycobacterium abscessus [3]; clinical and type strains", "result": "potentiated the impact of amikacin in both clinical and type strains"}, {"measurement": "effect of cysteamine on the impact of azithromycin (by FICI)", "setting": "Mycobacterium abscessus [3]; clinical and type strains", "result": "azithromycin in all but one clinical strain"}, {"measurement": "effect of cysteamine on meropenem sensitivity", "setting": "Mycobacterium abscessus [3]; clinical isolates and type strain", "result": "showing some concentration-specific antagonism"}]}, {"smiles": "C[C@@H](O)[C@H]1C(=O)N2C(C(=O)O)=C(S[C@@H]3CN[C@H](C(=O)N(C)C)C3)[C@H](C)[C@H]12", "note": "[Meropenem]", "values": [{"measurement": "MIC", "setting": "Mycobacterium abscessus [1]; [4]", "result": 64, "unit": "µg/mL"}, {"measurement": "MIC", "setting": "Mycobacterium abscessus [1]; strain MR27419N (clinical)", "result": 64, "unit": "µg/mL"}, {"measurement": "MIC", "setting": "Mycobacterium abscessus [1]; strain MR313292 (clinical)", "result": "16 to 64", "unit": "µg/mL"}, {"measurement": "MIC", "setting": "Mycobacterium abscessus [1]; strain MR313367D (clinical)", "result": "16 to 64", "unit": "µg/mL"}]}, {"smiles": "NC[C@H]1O[C@H](O[C@H]2[C@H](O)[C@@H](O[C@H]3O[C@H](CO)[C@@H](O)[C@H](N)[C@H]3O)[C@H](N)C[C@@H]2N)[C@H](N)C[C@@H]1O", "note": "[Tobramycin]", "values": [{"measurement": "reduction of polymicrobial load", "setting": "[2]; [6]", "result": "1.42 (95% CI 0.92-1.92) log10 units"}]}]}
